{"source": "ChEMBL document CHEMBL1137893", "about": "“Active site inhibitors of HCV NS5B polymerase. The development and pharmacophore of 2-thienyl-5,6-dihydroxypyrimidine-4-carboxylic acid” (Bioorg Med Chem Lett, 2004)"}
{"target": "RNA-directed RNA polymerase (Hepacivirus hominis, UniProt O39930)", "sequence (O39930 whole entry)": "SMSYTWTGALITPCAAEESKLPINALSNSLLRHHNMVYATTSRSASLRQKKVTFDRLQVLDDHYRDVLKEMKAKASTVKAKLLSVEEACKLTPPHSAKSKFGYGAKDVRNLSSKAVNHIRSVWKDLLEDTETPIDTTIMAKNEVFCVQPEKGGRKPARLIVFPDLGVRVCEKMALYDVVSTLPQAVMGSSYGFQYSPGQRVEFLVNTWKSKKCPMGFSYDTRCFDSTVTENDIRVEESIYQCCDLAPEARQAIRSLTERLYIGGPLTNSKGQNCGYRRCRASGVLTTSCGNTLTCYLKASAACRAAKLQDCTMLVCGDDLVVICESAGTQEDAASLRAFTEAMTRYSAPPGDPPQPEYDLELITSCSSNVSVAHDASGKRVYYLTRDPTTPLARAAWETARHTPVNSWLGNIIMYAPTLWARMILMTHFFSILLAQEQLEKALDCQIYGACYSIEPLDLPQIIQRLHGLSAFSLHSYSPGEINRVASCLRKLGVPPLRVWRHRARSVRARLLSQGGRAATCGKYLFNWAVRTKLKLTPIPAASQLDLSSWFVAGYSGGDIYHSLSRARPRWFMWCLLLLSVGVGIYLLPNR", "assay": "inhibitory concentration against RNA dependent RNA polymerase Nonstructural protein 5B of hepatitis C virus", "units": {"IC50": "µM"}}
{"smiles": "O=C(O)c1nc(-c2cccs2)nc(O)c1O", "IC50": 2.6}
{"smiles": "Cn1c(-c2cccs2)nc(C(=O)O)c(O)c1=O", "IC50": 4.2}
{"smiles": "O=C(O)C(=O)/C=C(\\O)c1ccccc1", "IC50": 5.7}
{"smiles": "O=C(O)c1nc(-c2ccccc2)nc(O)c1O", "IC50": 30}
{"smiles": "CS(=O)(=O)c1nc(-c2cccs2)nc(C(=O)O)c1O", "IC50": 49}
{"smiles": "COc1nc(-c2cccs2)nc(C(=O)O)c1O", "IC50": 50}
{"smiles": "O=C(NS(=O)(=O)C(F)(F)F)c1nc(-c2cccs2)[nH]c(=O)c1O", "IC50": 6.2}
{"target": "RNA-directed RNA polymerase (Hepacivirus hominis) (UniProt O39930)", "sequence (O39930 1-591)": "as the sequence (O39930 whole entry) above", "assay": "Percentage inhibition of RNA dependent RNA polymerase Nonstructural protein 5B of hepatitis C virus at 50 uM", "units": {"inhibition": "%"}}
{"smiles": "CS(=O)(=O)Nc1nc(-c2cccs2)nc(C(=O)O)c1O", "inhibition": "< 30"}
{"smiles": "Oc1nc(-c2cccs2)nc(-c2nn[nH]n2)c1O", "inhibition": "< 30"}
{"smiles": "O=P(O)(O)c1nc(-c2cccs2)nc(O)c1O", "inhibition": "< 30"}
{"smiles": "O=C(NS(=O)(=O)Cc1ccccc1)c1nc(-c2cccs2)nc(O)c1O", "inhibition": "< 30"}
{"smiles": "O=C(O)c1nc(-c2ccccn2)nc(O)c1O", "inhibition": "< 30"}
{"smiles": "O=C(O)c1nc(-c2cccs2)ncc1O", "inhibition": "< 30"}
{"smiles": "COC(=O)c1nc(-c2cccs2)nc(O)c1O", "inhibition": "< 30"}
{"smiles": "O=C(O)c1[nH]c(-c2cccs2)nc2ncnc1-2", "inhibition": "< 30"}
